Results as given in publication PMC8954540, “A New Class of PSMA-617-Based Hybrid Molecules for Preoperative Imaging and Intraoperative Fluorescence Navigation of Prostate Cancer” (Pharmaceuticals, 2022).
Values belong to the compound of their own block, whether it stands above or below them.

What was measured:
LNCaP cells [1] = assay: Confocal fluorescence imaging, PSMA-positive cells; type: cell-based; conditions: 50 nmol/L, 60 min of internalization
Procedure: (§1) For confocal microscopy sample preparation, 10^5 cells/well were seeded in poly-L-lysine (Sigma-Aldrich, Darmstadt, Germany) coated 4-well chambered coverslips (Nunc Lab-Tek II chambered coverglasses, Thermo Fisher Scientific, Waltham, MA, USA, live cell imaging) or on poly-L-lysine (Sigma-Aldrich, Darmstadt, Germany) coated #1 coverslips (15 mm diameter, fixed cell imaging) and kept for 48 h at 37 °C in humidified air with 5% CO2. Subsequently, cells were incubated with 50 nmol/L PSMA-927in RPMI for 5/15/30/45/60 min at 37 °C in humidified air with 5% CO2. […]
(§2) All confocal data were acquired with a custom-built STED system similar to the one published by Gorlitz et al.. […] Laser powers were measured in front of the microscope body. […]
(§3) The integrated fluorescence intensity was extracted with a custom-written ImageJ routine. […] Multiplying this mask with the corresponding raw image generates an output image with which the integrated fluorescence intensity can be evaluated exclusively in the signal-carrying parts of the raw image without summing up background.

LNCaP cells [2] = assay: Cytotoxicity study by holographic time-lapse imaging; type: cell-based; conditions: 100 nmol/L, constant exposure for 48 h
Procedure: Potential cytotoxicity of PSMA-927 was assessed by analyzing the frequency of LNCaP cell division and the length of the LNCaP cell cycle via holographic time-lapse imaging. Cells were seeded in lumox® 24-well plates (Sarstedt, Nümbrecht, Germany) 48 h prior to the experiment and kept at 37 °C and 5% CO2. Imaging was performed with a HoloMonitor® M4 cytometer (PHI AB, Lund, Schweden) for a total period of 48 h at 37 °C and 5% CO2 with 15 min between image captures. Cell proliferation was followed in absence and in presence of 100 nmol/L PSMA-927. Data analysis was performed with the AppSuite software including cell segmentation, tracking of cells, identification of dividing cells, confluency measurement, and cell counting.

PC-3 cells = assay: Confocal fluorescence imaging, PSMA-negative cells; type: cell-based; conditions: PSMA-negative PC-3 cells, 50 nmol/L
Procedure: as §1, §2, §3

PSMA = target: T1, PSMA (Homo sapiens, UniProt Q04609); assay: Competitive cell binding assay (radioligand 68Ga-PSMA-10); conditions: free ligands, mean ± SD, n = 3
T1 construct: LNCaP cells (CRL-1740; ATCC; PSMA-positive); host or cells: LNCaP cells
Procedure: (§4) LNCaP cells (CRL-1740; ATCC; PSMA-positive) and PC-3 cells (CRL-1435; ATCC; PSMA-negative) were cultured in RPMI medium (Thermo Fisher Scientific, Waltham, MA, USA) supplemented with 10% fetal calf serum and 2 mmol/L L-glutamine (all from (Thermo Fisher Scientific, Waltham, MA, USA) ) at 37 °C in humidified air with 5% CO2. Cells were harvested using trypsin-ethylenediaminetetraacetic acid (trypsin-EDTA; 0.25% trypsin, 0.02% EDTA, Invitrogen, Waltham, MA, USA). Cell line authentication was regularly performed. Binding affinities and internalization profiles of the ^68Ga-labeled compounds were determined in competitive cell binding assays and internalization experiments as described previously.

[3] = Spectral properties (absorption and emission); type: physicochemical; conditions: 10 μM in PBS (pH 7.4)
Procedure: Absorbance was measured with a Varian Cary 500 UV-VIS NIR Spectrophotometer (Agilent, Santa Clara, CA, USA) equipped with the software Cary 500 (EPROM Version 8.01, Agilent, Santa Clara, CA, USA) in the 200–1200 nm interval. Fluorescence emission was measured with a Varian Cary Eclipse Fluorescence-Spectrophotometer (Agilent, Santa Clara, CA, USA) equipped with the software Cary Eclipse (Version 1.1, Agilent, Santa Clara, CA, USA) with excitation at 710 nm in the 720–900 nm interval. PSMA-927 was diluted to 10 μM in PBS (pH 7.4) and measured in standard 1 cm quartz cuvettes.

[4] = Lipophilicity, logD at pH 7.4 in n-octanol/PBS; type: physicochemical; conditions: 68Ga-labeled ligand
Procedure: The synthesis was performed according to previously published protocols. Details on synthesis and analytical data of the compounds are provided in the Supplementary Materials (Compound Synthesis and Analytical Characterization). […] Using 30% NaOH (Sigma-Aldrich, Darmstadt, Germany) and 10% NaOH (Sigma-Aldrich, Darmstadt, Germany), the pH was adjusted to 3.8. The reaction mixture was incubated at 98 °C for 5–10 min. The radiochemical yield was analyzed by reversed-phase high-performance liquid chromatography (RP-HPLC) or reversed-phase thin-layer chromatography (RP-TLC, 60 RP-18 F254S, Sigma-Aldrich, Darmstadt, Germany) with 0.5 M ammonium acetate/methanol (1:1) as the mobile phase. The lipophilicity of the ^68Ga-labeled compounds was determined using the 2-phase system n-octanol and PBS.

LNCaP cells [5] = assay: Specific cell surface binding and internalization of 68Ga-labeled compounds; type: cell-based
Procedure: as §4

PC-3 tumor xenografts = assay: Small-animal PET/MRI proof-of-concept, PSMA-negative xenograft; type: in vivo, mice; conditions: 0.5 nmol, PSMA-negative PC-3 xenograft, n = 1
Procedure: (§5) For the proof-of-concept imaging study, 0.5 nmol of the ^68Ga-labeled compound in 0.9% NaCl (pH 7) were injected into the tail vein under anesthesia (2% isoflurane, n = 1). PET/MRI was performed with a 3T PET/MRI scanner (Bruker, Ettlingen, Germany). For MR imaging, a nontriggered localizer followed by a T1-weighted 3D scan was applied. For PET imaging, a dynamic scan for 60 min and a static scan (20 min) at 2 h p.i. was recorded. Image reconstruction was done with ParaVision software (dynamic scan: MLEM 0.5 mm algorithm, 12 iterations; static scan: OSEM 0.25 mm algorithm, 1 iteration), and data analysis was conducted in PMOD (version 3.7) with data converted to SUV images. After PET/MRI, the mice were sacrificed, and optical imaging of the subcutaneous tumor and organs of interest was performed with the Odyssey CLx system (LI-COR Biosciences, excitation wavelength 800 nm).

[6] = test system: LNCaP xenograft mouse model; assay: Small-animal PET/MRI proof-of-concept, PSMA-positive xenograft; type: in vivo, mice
Procedure: (§6) Biodistribution and proof-of-concept imaging studies were performed in an experimental tumor xenograft model. A total of 5 × 10^6 cells of LNCaP (in 50% Matrigel; Becton Dickinson, Franklin Lakes, NJ, USA) were subcutaneously inoculated into the flank of 7- to 8-week-old male BALB/c nu/nu mice (Charles River, Wilmington, MA, USA/Janvier Labs, Le Genest-Saint-Isle, France).
as §5

[7] = test system: LNCaP-tumor bearing BALB/c nu/nu mice; assay: Biodistribution (organ distribution) in tumor xenograft model; type: in vivo; conditions: 0.06 nmol; for Organ distribution Blood / Organ distribution Brain / Organ distribution Heart / Organ distribution Intestine / Organ distribution Kidney / Organ distribution Liver / Organ distribution Lung / Organ distribution Muscle / Organ distribution Spleen / Organ distribution Tumor: n=3
Procedure: as §6
For biodistribution studies, 60 pmol of ^68Ga-labeled PSMA-927 were injected into the tail vein (1–3 MBq, n = 3). The animals were sacrificed at 1 and at 2 h p.i., and organs of interest were dissected, blotted dry, and weighed. Finally, the radioactivity was measured using a gamma counter and calculated as % ID/g.

human serum albumin = test system: human serum albumin; set-up: method as in PMID 942422, PMID 11325049; conditions: cited from earlier work
[8] = 68Ga-labeled compounds, blockage with 500 µmol/L 2-PMPA, mean ± SD, n = 3

T1 sequence (Q04609 whole entry): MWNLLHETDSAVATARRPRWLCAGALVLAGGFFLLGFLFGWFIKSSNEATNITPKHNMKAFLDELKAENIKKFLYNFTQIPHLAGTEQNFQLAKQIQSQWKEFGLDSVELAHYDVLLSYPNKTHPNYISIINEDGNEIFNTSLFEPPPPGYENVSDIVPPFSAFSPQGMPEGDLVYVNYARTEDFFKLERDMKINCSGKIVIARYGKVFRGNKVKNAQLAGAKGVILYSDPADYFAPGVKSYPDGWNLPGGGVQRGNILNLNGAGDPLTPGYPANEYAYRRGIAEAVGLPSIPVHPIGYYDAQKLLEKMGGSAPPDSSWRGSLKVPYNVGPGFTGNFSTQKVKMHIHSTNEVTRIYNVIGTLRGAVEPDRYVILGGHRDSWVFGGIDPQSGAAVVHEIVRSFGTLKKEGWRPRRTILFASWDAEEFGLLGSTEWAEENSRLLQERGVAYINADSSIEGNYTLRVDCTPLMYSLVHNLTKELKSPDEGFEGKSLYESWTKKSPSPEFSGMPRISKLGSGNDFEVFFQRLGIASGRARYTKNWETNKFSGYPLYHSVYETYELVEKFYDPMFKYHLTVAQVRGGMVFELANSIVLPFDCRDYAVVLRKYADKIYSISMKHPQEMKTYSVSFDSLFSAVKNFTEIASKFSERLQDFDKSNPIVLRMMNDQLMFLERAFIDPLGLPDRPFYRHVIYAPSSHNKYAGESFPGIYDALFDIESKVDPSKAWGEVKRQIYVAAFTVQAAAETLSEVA

Ki (PSMA; Ki=IC50/(1+cradioligand/Kd)): 13.2 ± 5.25 nM | IC50 (PSMA; radioligand 68Ga-PSMA-10, 0.75 nmol/L): 15.9 ± 5.46 nM | absorption maximum [3]: 778 nm | emission maximum ([3]; excitation at 710 nm): 796 nm | Lipophilicity logDpH 7.4 n-octanol/PBS [4]: -2.96 ± 0.06
Structure (SMILES): CC1(C)C(=CC=C2CCCC(C=CC3=[N+](CCCCCC(=O)NCCCCC(NC(=O)CN4CCN(CC(=O)O)CCN(CC(=O)O)CCN(CC(=O)O)CC4)C(=O)NCC4CCC(C(=O)NC(Cc5ccc6ccccc6c5)C(=O)NCCCCC(NC(=O)NC(CCC(=O)O)C(=O)O)C(=O)O)CC4)c4ccc(S(=O)(=O)O)cc4C3(C)C)=C2Oc2ccc(S(=O)(=O)O)cc2)N(CCCCS(=O)(=O)O)c2ccc(S(=O)(=O)O)cc21 (stereo not drawn) [PSMA-927, Glu-urea-Lys-2-Nal-Chx-Lys(IRDye800CW)-DOTA]
integrated fluorescence intensity fixed (LNCaP cells [1]; PFA-fixed cells): 3021 ± 863 counts | integrated fluorescence intensity live (LNCaP cells [1]; live cells): 11,618 ± 5412 counts | cytotoxicity (cell count, confluency, frequency of cell division, cell cycle length) (LNCaP cells [2]): did not reveal any evidence of cytotoxicity | fluorescence signal increase (PC-3 cells): no significant fluorescence signal increase | Specifically Cell Surface Bound (LNCaP cells [5]; [8]): 25.51 ± 9.73 %AR/10^5 Cells | Specifically Internalized (LNCaP cells [5]; [8]): 27.64 ± 12.80 %AR/10^5 Cells

tumor uptake in PET/MRI (PC-3 tumor xenografts): lack of measurable uptake | tumor uptake in PET/MRI ([6]; 0.5 nmol, PSMA-positive LNCaP xenograft, n = 1): strong and specific tumor uptake | Tumor-to-Organ ratio Blood ([7]; 1 h p.i.): 3.69 ± 0.60 | Tumor-to-Organ ratio Brain ([7]; 1 h p.i.): 57.84 ± 9.25 | Tumor-to-Organ ratio Heart ([7]; 1 h p.i.): 8.57 ± 2.07 | Tumor-to-Organ ratio Intestine ([7]; 1 h p.i.): 10.37 ± 2.47 | Tumor-to-Organ ratio Kidney ([7]; 1 h p.i.): 0.06 ± 0.01 | Tumor-to-Organ ratio Liver ([7]; 1 h p.i.): 4.51 ± 0.84 | Tumor-to-Organ ratio Lung ([7]; 1 h p.i.): 2.84 ± 0.37 | Tumor-to-Organ ratio Muscle ([7]; 1 h p.i.): 12.23 ± 1.39 | Tumor-to-Organ ratio Spleen ([7]; 1 h p.i.): 1.76 ± 0.71 | Organ distribution Blood ([7]; 1 h p.i.): 1.14 ± 0.14 %ID/g | Organ distribution Brain ([7]; 1 h p.i.): 0.07 ± 0.01 %ID/g | Organ distribution Heart ([7]; 1 h p.i.): 0.51 ± 0.10 %ID/g | Organ distribution Intestine ([7]; 1 h p.i.): 0.43 ± 0.12 %ID/g | Organ distribution Kidney ([7]; 1 h p.i.): 65.64 ± 6.60 %ID/g | Organ distribution Liver ([7]; 1 h p.i.): 0.95 ± 0.15 %ID/g | Organ distribution Lung ([7]; 1 h p.i.): 1.47 ± 0.14 %ID/g | Organ distribution Muscle ([7]; 1 h p.i.): 0.34 ± 0.03 %ID/g | Organ distribution Spleen ([7]; 1 h p.i.): 2.82 ± 1.19 %ID/g | Organ distribution Tumor ([7]; 1 h p.i.): 4.13 ± 0.15 %ID/g | Tumor-to-Organ ratio Blood ([7]; 2 h p.i.): 7.58 ± 1.65 | Tumor-to-Organ ratio Brain ([7]; 2 h p.i.): 29.37 ± 13.17 | Tumor-to-Organ ratio Heart ([7]; 2 h p.i.): 14.79 ± 4.40 | Tumor-to-Organ ratio Intestine ([7]; 2 h p.i.): 11.92 ± 5.17 | Tumor-to-Organ ratio Kidney ([7]; 2 h p.i.): 0.13 ± 0.06 | Tumor-to-Organ ratio Liver ([7]; 2 h p.i.): 7.80 ± 3.09 | Tumor-to-Organ ratio Lung ([7]; 2 h p.i.): 6.11 ± 2.36 | Tumor-to-Organ ratio Muscle ([7]; 2 h p.i.): 11.55 ± 5.94 | Tumor-to-Organ ratio Spleen ([7]; 2 h p.i.): 3.60 ± 1.86 | Organ distribution Blood ([7]; 2 h p.i.): 0.82 ± 0.23 %ID/g | Organ distribution Brain ([7]; 2 h p.i.): 0.24 ± 0.11 %ID/g | Organ distribution Heart ([7]; 2 h p.i.): 0.43 ± 0.14 %ID/g | Organ distribution Intestine ([7]; 2 h p.i.): 0.59 ± 0.26 %ID/g | Organ distribution Kidney ([7]; 2 h p.i.): 57.47 ± 23.83 %ID/g | Organ distribution Liver ([7]; 2 h p.i.): 0.87 ± 0.34 %ID/g | Organ distribution Lung ([7]; 2 h p.i.): 1.11 ± 0.42 %ID/g | Organ distribution Muscle ([7]; 2 h p.i.): 0.66 ± 0.30 %ID/g | Organ distribution Spleen ([7]; 2 h p.i.): 2.08 ± 0.90 %ID/g | Organ distribution Tumor ([7]; 2 h p.i.): 5.85 ± 0.91 %ID/g
Structure (SMILES): CC1(C)C(=CC=C2CCCC(C=CC3=[N+](CCCCCC(=O)NCCCCC(NC(=O)CN4CCN(CC(=O)[O-])CCN(CC(=O)[O-])CCN(CC(=O)[O-])CC4)C(=O)NCC4CCC(C(=O)NC(Cc5ccc6ccccc6c5)C(=O)NCCCCC(NC(=O)NC(CCC(=O)O)C(=O)O)C(=O)O)CC4)c4ccc(S(=O)(=O)[O-])cc4C3(C)C)=C2Oc2ccc(S(=O)(=O)O)cc2)N(CCCCS(=O)(=O)O)c2ccc(S(=O)(=O)O)cc21.[68Ga+3] (stereo not drawn) [[^68Ga]Ga-PSMA-927, 68Ga-Glu-urea-Lys-2-Nal-Chx-Lys(IRDye800CW)-DOTA]
pharmacokinetic profile (clearance) ([6]; time activity curves, PET/MRI): rapid clearance from non-malignant tissue (heart, liver, muscle) via the renal pathway | specific cell surface binding (LNCaP cells [5]): 25.51 ± 9.73 %ID/10^5 LNCaP cells | specific internalization rate (LNCaP cells [5]): 27.64 ± 12.80 %ID/10^5 LNCaP cells

Structure (SMILES): CC1(C)C(/C=C/C=C/C=C/C=C2\N(CCCCS(=O)(=O)O)c3ccc4ccccc4c3C2(C)C)=[N+](CCCCS(=O)(=O)[O-])c2ccc3ccccc3c21 [indocyanine green]
human serum albumin binding (human serum albumin): prone to human serum albumin binding
